Laboratory results: the kinase profiling compilation of Christmann-Franck et al. (2016)
Where “and” joins values, the source holds several entries; their conditions need not be identical. Equal values may be shown once.

Columns and labels:
Experiment in all cases: radiometric filter-binding kinase assay, Kinase HotSpot
Conditions in all cases: compound 0.5 µM; ATP 10 µM
[1] = biological target: PAK6 (human) (UniProt Q9NQU5)
[2] = biological target: SRPK3 (human) (UniProt Q9UPE1)
[3] = biological target: ZAP70 (human) (UniProt P43403)
[4] = biological target: MAPKAPK5 (human) (UniProt Q8IW41)
[5] = biological target: CDK3 CCNE1 (human) (UniProt Q00526+P24864)
[6] = biological target: AKT1 (human) (UniProt P31749)
[7] = biological target: PTK6 (human) (UniProt Q13882)
[8] = biological target: TXK (human) (UniProt P42681)
[9] = biological target: PDPK1 (human) (UniProt O15530)
[10] = biological target: STK16 (human) (UniProt O75716)
[11] = biological target: CDK1 CCNA2 (human) (UniProt P06493+P20248)
[12] = biological target: AURKA (human) (UniProt O14965)
[13] = biological target: MARK1 (human) (UniProt Q9P0L2)
[14] = biological target: PRKCA (human) (UniProt P17252)
[15] = biological target: ABL2 (human) (UniProt P42684)
[16] = biological target: DYRK1B (human) (UniProt Q9Y463)
[17] = biological target: RIPK2 (human) (UniProt O43353)
[18] = biological target: RPS6KB1 (human) (UniProt P23443)
[19] = biological target: OXSR1 (human) (UniProt O95747)
[20] = biological target: IKBKB (human) (UniProt O14920)
[21] = biological target: CAMKK1 (human) (UniProt Q8N5S9)
[22] = biological target: JAK3 JH1 JH2 (human) (UniProt P52333)
[23] = biological target: CAMKK2 (human) (UniProt Q96RR4)
[24] = biological target: LYN (human) (UniProt P07948)
[25] = biological target: ULK3 (human) (UniProt Q6PHR2)
[26] = biological target: PRKCB2 (human) (UniProt P05771)
[27] = biological target: PAK2 (human) (UniProt Q13177)
[28] = biological target: TYK2 JH1 catalytic (human) (UniProt P29597)
[29] = biological target: STK38 (human) (UniProt Q15208)
[30] = biological target: MAP3K14 (human) (UniProt Q99558)
[31] = biological target: RPS6KA3 KD1 KD2 (human) (UniProt P51812)
[32] = biological target: NTRK1 (human) (UniProt P04629)
[33] = biological target: PAK4 (human) (UniProt O96013)
[34] = biological target: NEK1 (human) (UniProt Q96PY6)
[35] = biological target: CAMK4 (human) (UniProt Q16566)
[36] = biological target: SYK (human) (UniProt P43405)
[37] = biological target: BRSK2 (human) (UniProt Q8IWQ3)
[38] = biological target: PRKCH (human) (UniProt P24723)
[39] = biological target: DCLK2 (human) (UniProt Q8N568)
[40] = biological target: MET (human) (UniProt P08581)
[41] = biological target: IGF1R (human) (UniProt P08069)
[42] = biological target: MAPK9 (human) (UniProt P45984)

Chain of PRKCB2 (human) (P05771 whole entry, looked up): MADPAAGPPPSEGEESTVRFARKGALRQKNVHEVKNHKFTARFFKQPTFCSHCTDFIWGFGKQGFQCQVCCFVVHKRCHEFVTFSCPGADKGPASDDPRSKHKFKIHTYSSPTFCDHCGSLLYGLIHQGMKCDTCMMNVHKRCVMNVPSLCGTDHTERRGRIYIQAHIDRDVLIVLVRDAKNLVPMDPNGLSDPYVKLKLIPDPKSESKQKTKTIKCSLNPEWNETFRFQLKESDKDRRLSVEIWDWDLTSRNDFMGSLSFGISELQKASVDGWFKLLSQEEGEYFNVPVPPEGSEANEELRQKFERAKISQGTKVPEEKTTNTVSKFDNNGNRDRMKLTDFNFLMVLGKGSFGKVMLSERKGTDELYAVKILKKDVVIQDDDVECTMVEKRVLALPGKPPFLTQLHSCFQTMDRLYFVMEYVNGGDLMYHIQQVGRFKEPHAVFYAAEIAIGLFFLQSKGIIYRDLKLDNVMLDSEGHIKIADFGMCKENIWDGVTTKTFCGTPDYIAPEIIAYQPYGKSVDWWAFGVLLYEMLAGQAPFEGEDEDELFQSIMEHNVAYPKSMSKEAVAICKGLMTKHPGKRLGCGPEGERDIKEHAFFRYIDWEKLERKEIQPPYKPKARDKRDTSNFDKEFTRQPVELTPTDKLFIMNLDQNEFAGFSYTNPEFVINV
Chain of TYK2 JH1 catalytic (human) (P29597 whole entry, looked up): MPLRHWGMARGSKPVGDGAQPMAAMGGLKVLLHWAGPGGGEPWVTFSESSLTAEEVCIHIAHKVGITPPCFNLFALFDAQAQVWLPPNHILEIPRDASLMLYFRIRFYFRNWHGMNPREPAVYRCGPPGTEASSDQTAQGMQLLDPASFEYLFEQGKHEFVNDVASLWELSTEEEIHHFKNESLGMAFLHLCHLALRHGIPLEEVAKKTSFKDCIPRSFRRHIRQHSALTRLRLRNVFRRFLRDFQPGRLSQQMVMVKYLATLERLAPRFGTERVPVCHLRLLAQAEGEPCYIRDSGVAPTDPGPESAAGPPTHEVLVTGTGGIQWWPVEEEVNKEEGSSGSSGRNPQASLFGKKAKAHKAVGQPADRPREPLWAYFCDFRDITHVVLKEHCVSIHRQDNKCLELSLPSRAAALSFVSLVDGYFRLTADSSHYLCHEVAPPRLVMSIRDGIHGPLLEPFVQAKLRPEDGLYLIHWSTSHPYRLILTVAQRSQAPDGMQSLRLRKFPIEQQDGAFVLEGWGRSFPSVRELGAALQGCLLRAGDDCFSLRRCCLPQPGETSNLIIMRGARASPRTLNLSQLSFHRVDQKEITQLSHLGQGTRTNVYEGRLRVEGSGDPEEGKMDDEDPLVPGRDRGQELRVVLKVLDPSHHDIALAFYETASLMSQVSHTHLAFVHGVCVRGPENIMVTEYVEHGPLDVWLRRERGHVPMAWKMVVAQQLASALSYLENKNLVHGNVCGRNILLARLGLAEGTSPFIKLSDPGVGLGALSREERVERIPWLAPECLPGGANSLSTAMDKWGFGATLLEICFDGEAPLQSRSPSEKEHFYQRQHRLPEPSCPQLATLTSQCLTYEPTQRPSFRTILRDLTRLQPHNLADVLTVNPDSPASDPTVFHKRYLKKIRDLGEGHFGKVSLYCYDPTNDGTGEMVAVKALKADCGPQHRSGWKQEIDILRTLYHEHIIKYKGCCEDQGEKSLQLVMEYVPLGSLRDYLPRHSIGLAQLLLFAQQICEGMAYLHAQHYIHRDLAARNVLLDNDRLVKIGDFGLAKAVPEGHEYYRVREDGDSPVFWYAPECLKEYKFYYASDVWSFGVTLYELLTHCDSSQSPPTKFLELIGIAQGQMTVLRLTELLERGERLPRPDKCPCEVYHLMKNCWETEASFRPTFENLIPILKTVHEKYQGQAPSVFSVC
Chain of CDK1 CCNA2 (human) (P06493 whole entry, looked up): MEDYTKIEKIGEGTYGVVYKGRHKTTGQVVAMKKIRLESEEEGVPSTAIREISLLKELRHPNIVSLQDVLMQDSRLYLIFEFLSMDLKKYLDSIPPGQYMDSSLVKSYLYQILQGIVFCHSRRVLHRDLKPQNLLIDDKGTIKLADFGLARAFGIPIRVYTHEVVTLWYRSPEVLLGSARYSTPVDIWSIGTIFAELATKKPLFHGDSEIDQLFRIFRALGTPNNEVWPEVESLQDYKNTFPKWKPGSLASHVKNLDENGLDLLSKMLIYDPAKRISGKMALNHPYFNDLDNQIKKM
Chain of CDK1 CCNA2 (human) (P20248 whole entry, looked up): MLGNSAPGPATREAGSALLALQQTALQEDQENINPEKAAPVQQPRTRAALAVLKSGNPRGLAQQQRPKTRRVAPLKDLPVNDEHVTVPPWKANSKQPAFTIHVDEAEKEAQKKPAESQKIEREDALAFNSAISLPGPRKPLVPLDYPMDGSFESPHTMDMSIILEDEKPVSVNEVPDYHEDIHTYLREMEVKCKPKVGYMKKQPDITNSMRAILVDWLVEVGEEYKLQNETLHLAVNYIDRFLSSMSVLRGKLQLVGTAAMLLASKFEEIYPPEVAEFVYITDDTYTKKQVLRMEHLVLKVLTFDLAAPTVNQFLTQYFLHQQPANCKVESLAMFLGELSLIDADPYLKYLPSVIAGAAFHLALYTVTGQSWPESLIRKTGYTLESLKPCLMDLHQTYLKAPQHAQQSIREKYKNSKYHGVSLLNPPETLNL
Chain of DCLK2 (human) (Q8N568 whole entry, looked up): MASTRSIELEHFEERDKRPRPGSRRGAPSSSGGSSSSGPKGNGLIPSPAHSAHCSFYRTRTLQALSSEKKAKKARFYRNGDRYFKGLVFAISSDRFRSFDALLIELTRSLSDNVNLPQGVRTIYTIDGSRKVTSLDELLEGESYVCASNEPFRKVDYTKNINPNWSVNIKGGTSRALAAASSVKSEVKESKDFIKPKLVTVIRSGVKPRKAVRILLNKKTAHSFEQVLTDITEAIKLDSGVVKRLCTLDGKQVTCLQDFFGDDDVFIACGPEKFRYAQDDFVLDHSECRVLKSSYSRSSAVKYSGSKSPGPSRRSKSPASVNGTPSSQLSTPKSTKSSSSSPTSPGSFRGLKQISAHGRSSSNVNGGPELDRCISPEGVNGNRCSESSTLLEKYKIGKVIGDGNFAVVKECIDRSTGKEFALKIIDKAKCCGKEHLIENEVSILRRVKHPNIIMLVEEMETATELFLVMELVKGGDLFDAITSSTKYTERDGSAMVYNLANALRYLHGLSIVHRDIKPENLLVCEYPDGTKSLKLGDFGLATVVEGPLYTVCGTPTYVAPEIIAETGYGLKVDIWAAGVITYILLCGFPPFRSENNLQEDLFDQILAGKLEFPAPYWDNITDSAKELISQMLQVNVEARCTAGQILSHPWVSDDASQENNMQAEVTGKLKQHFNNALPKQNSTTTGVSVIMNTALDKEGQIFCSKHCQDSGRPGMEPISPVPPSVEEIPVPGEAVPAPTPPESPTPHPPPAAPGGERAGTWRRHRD
Chain of STK38 (human) (Q15208 whole entry, looked up): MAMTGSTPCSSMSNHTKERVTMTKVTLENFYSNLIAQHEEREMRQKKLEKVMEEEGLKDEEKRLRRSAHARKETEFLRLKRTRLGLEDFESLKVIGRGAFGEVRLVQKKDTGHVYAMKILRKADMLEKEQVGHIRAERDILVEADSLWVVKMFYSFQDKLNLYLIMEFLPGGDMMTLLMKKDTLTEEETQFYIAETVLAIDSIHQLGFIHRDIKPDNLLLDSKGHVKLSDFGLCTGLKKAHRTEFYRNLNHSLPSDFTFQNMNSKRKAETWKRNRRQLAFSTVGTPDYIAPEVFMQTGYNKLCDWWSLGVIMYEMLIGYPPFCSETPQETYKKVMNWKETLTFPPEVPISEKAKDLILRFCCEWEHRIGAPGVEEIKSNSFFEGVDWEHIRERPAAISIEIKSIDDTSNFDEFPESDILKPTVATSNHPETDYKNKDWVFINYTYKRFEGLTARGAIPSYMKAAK
Chain of AKT1 (human) (P31749 whole entry, looked up): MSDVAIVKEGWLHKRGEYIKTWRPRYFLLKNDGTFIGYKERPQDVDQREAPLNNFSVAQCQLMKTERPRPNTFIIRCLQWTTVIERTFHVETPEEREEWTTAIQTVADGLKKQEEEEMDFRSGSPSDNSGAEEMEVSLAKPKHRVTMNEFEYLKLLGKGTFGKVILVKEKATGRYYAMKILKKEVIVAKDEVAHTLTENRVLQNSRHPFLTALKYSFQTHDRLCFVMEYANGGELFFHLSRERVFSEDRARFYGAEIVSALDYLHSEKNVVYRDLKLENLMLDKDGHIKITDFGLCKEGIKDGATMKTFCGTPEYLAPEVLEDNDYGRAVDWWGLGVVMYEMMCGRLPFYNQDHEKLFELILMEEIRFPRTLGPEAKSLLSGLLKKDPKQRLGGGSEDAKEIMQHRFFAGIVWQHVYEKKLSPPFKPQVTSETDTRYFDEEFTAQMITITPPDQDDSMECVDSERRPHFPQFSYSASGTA
Chain of STK16 (human) (O75716 whole entry, looked up): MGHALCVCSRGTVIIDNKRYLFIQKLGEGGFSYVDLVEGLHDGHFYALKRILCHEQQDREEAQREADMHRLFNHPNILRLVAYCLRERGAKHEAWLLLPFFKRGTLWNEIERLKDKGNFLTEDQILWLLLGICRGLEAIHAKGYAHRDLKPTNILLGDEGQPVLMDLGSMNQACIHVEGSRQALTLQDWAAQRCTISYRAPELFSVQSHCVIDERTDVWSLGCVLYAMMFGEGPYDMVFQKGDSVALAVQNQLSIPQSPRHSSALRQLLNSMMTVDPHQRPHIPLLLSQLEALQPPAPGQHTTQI
Chain of AURKA (human) (O14965 whole entry, looked up): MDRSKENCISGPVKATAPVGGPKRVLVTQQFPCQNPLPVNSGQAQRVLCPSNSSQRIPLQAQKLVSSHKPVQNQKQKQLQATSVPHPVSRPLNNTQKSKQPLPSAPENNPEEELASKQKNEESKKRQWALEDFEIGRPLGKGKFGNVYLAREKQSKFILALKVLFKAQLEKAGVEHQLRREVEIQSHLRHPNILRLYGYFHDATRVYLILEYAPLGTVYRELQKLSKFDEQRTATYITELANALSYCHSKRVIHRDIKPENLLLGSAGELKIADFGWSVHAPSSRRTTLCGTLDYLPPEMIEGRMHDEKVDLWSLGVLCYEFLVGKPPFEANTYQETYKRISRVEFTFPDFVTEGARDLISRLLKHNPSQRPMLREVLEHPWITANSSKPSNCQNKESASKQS

With `Cc1ccc(Nc2nccc(N(C)c3ccc4c(C)n(C)nc4c3)n2)cc1S(N)(=O)=O` the residual activity [1] was 105%, the residual activity [2] was 102% and the residual activity [3] was 92.6%. The residual activity [4] was 100%, the residual activity [5] was 93.5% and the residual activity [6] was 91.2%. For the same compound, the residual activity [7] was 66.2%, the residual activity [8] was 40.2% and the residual activity [9] was 93%. For the same compound, the residual activity [10] was 43.8%, the residual activity [11] was 96.2% and the residual activity [12] was 38.4%. It also gave a residual activity [13] of 99.9%, a residual activity [14] of 94.4% and a residual activity [15] of 38.5%. The residual activity [16] was 93.3%, the residual activity [17] was 68.2% and the residual activity [18] was 96%. For the same compound, the residual activity [19] was 103%, the residual activity [20] was 86.9% and the residual activity [21] was 72%. The residual activity [22] was 95.3%, the residual activity [23] was 98.5% and the residual activity [24] was 52.1% and 58.9%. The residual activity [25] was 102%, the residual activity [26] was 96.7% and the residual activity [27] was 98.9%. For the same compound, the residual activity [28] was 94%, the residual activity [29] was 100% and the residual activity [30] was 104%. For the same compound, the residual activity [31] was 99.1%, the residual activity [32] was 91.8% and the residual activity [33] was 92%. The residual activity [34] was 105%, the residual activity [35] was 95.9% and the residual activity [36] was 101%. The residual activity [37] was 101%, the residual activity [38] was 110% and the residual activity [39] was 102%.

With `O=C1NC(=O)c2c1c1c3ccccc3n3c1c1c2c2ccccc2n1C1CCC3O1` the residual activity [40] was 76.9%, the residual activity [1] was 85.4% and the residual activity [2] was 63.6%. It also gave a residual activity [3] of 88.4%, a residual activity [4] of 80.4% and a residual activity [5] of 71.5%. The residual activity [6] was 63.9%, the residual activity [7] was 83.9% and the residual activity [8] was 22.7%. For the same compound, the residual activity [9] was 10.6%, the residual activity [10] was 58.1% and the residual activity [11] was 61.7%. The residual activity [12] was 22.3%, the residual activity [41] was 63.8% and the residual activity [13] was 10.4%. It also gave a residual activity [14] of 13.9%, a residual activity [15] of 68% and a residual activity [16] of 3.15%. It also gave a residual activity [17] of 79.7%, a residual activity [18] of 2.38% and a residual activity [19] of 92.4%. For the same compound, the residual activity [20] was 97.8%, the residual activity [21] was 27.2% and the residual activity [22] was 1.87%. The residual activity [42] was 96.1%, the residual activity [23] was 7.93% and the residual activity [25] was 33%. The residual activity [26] was 6.42%, the residual activity [27] was 43.9% and the residual activity [28] was 4.32%. It also gave a residual activity [29] of 46.2%, a residual activity [30] of 134% and a residual activity [31] of 2.35%. It also gave a residual activity [32] of 4.98%, a residual activity [33] of 75.3% and a residual activity [34] of 50.9%. It also gave a residual activity [35] of 98.7%, a residual activity [36] of 15.8% and a residual activity [37] of 13.6%. It also gave a residual activity [38] of 47.6% and a residual activity [39] of 89.6%.

`COc1cc2ncnc(Nc3cccc(Cl)c3)c2cc1OC` showed a residual activity [40] of 75.5%, a residual activity [1] of 81.6% and a residual activity [2] of 90.1%. For the same compound, the residual activity [3] was 102%, the residual activity [4] was 89.5% and the residual activity [5] was 95.2%. The residual activity [6] was 89.9%, the residual activity [7] was 39% and the residual activity [8] was 75%. The residual activity [9] was 81.9%, the residual activity [10] was 101% and the residual activity [11] was 94.9%. The residual activity [12] was 93.3%, the residual activity [41] was 75.9% and the residual activity [14] was 111%. For the same compound, the residual activity [15] was 52.6%, the residual activity [16] was 104% and the residual activity [17] was 45.4%. The residual activity [18] was 88.5%, the residual activity [19] was 92% and the residual activity [20] was 102%. For the same compound, the residual activity [21] was 92.2%, the residual activity [22] was 91.6% and the residual activity [42] was 92.2%. The residual activity [23] was 97.5%, the residual activity [25] was 77.3% and the residual activity [26] was 95.5%. For the same compound, the residual activity [27] was 90.7%, the residual activity [28] was 98.1% and the residual activity [29] was 104%. For the same compound, the residual activity [30] was 107%, the residual activity [31] was 87.8% and the residual activity [32] was 92.6%. The residual activity [33] was 76.5%, the residual activity [34] was 93.1% and the residual activity [35] was 94.4%. The residual activity [36] was 86.9%, the residual activity [37] was 96.7% and the residual activity [38] was 104%. It also gave a residual activity [39] of 94.7%.
